Values joined by “and” are separate entries in the source; they are usually repeats but may differ in a detail not shown here. Identical values can stand only once. Like-named read-outs stand apart in the source and are kept apart here.
Key:
[1] = test system: ATCC strain 43300 Staphylococcus aureus; type: cell-based
From the text: (§1) No colonies were observed, indicating total kill.
as §1

[2] = test system: ATCC strain 43300 Staphylococcus aureus
Procedure: Additional antibiotic was added every 24 hours.
USP<51> Antimicrobial Effectiveness protocol was used as the template experimental paradigm. […] All concentrations were plated out to the 10^−7 dilutionsto ascertain cfu/ml. […] Additional antibiotic was added at the initial concentration every 24 hours.
ATCC strain 43300 Staphylococcus aureus was streaked out for isolations. An isolated colony was chosen, streaked again and incubated. Isolate was chosen and then diluted to a McFarland standard of one. The estimated value was then taken to inoculate tubes containing growth media and 12, 30 or 60 μg/ml oxacillin with approximately 10^5 cfu/ml. These tubes were incubated and plated for counting cfu.
Material was calculated on a 10 ml volume. Sterile oxacillin was added to each experimental condition to a final concentration of 12, 30 or 60 μg/ml antibiotic.
All tubes were then inoculated with a dilution of the selected ATCC strain 43300 Staphylococcus aureus clone giving a final level of colony forming units of 3.3×10^5/ml (log=5.52). The tubes were incubated at 25° C. and mixed periodically. Antibiotic was re-inoculated every 24 hours at the initial concentration to maintain pressure on the organism. Plating was done at 24, 48, 72, and 120 hours. Each condition was plated by diluting 1 ml of growth material into 9 ml of MLB diluent broth. […] This mixture was serial diluted down to 10^−7 with 1 ml placed in triplicate in a sterile petri dish at each dilution point. 20 mls of TSA was added to each dilution, swirled and allowed to solidify. All dilutions were placed in a 35° C. incubator for 24 to 72 hours. Bacterial colonies on each plate were counted and the average taken then changed into log format. Any cfu/ml observed greater than 3.3×10^5 (log=5.5) were recorded as >3.3×10^5.

[3] = 5% MSM, 12 μg/ml oxacillin, 24 hours
[4] = 5% MSM, 30 μg/ml oxacillin, 24 hours
[5] = 5% MSM, 60 μg/ml oxacillin, 24 hours
[6] = 6% MSM, 12 μg/ml oxacillin, 24 hours
[7] = 6% MSM, 30 μg/ml oxacillin, 24 hours
[8] = 6% MSM, 60 μg/ml oxacillin, 24 hours
[9] = 7% MSM, 12 μg/ml oxacillin, 24 hours
[10] = 7% MSM, 30 μg/ml oxacillin, 24 hours
[11] = 7% MSM, 60 μg/ml oxacillin, 24 hours
[12] = 8% MSM, 12 μg/ml oxacillin, 24 hours
[13] = 8% MSM, 30 μg/ml oxacillin, 24 hours
[14] = 8% MSM, 60 μg/ml oxacillin, 24 hours
[15] = 9% MSM, 12 μg/ml oxacillin, 24 hours
[16] = 9% MSM, 30 μg/ml oxacillin, 24 hours
[17] = 9% MSM, 60 μg/ml oxacillin, 24 hours
[18] = 10% MSM, 12 μg/ml oxacillin, 24 hours
[19] = 10% MSM, 12 μg/ml oxacillin, 48 hours
[20] = 10% MSM, 30 μg/ml oxacillin, 24 hours
[21] = 10% MSM, 60 μg/ml oxacillin, 24 hours
[22] = 11% MSM, 12 μg/ml oxacillin, 24 hours
[23] = 11% MSM, 12 μg/ml oxacillin, 48 hours

## CS(C)(=O)=O [MSM, methylsulfonylmethane]
[1]; 11% MSM, 60 μg/ml oxacillin, 96 hours
  recovery of MRSA after enrichment: total kill
[1]; 13% MSM, 60 μg/ml oxacillin, 120 hours
  recovery of MRSA after enrichment: total kill
[1]; 14% MSM, 60 μg/ml oxacillin, 96 hours
  recovery of MRSA after enrichment: total kill
[1]; 15% MSM, 30 μg/ml oxacillin, 120 hours
  recovery of MRSA after enrichment: total kill
[1]; 15% MSM, 60 μg/ml oxacillin, 72 hours
  recovery of MRSA after enrichment: total kill
[1]; 16% MSM, 60 μg/ml oxacillin, 120 hours
  recovery of MRSA after enrichment: total kill
[2]; [3]
  Average Log: 3.91 Log
  survival: 8.4 × 10^3 cfu/ml and 8.0 × 10^3 cfu/ml
[2]; 5% MSM, 12 μg/ml oxacillin, 48 hours
  Average Log: 3.6 Log
[2]; 5% MSM, 12 μg/ml oxacillin, 72 hours
  Average Log: 5.5 Log
[2]; [4]
  Average Log: 2.51 Log
  survival: 3.1 × 10^2 cfu/ml and 3.3 × 10^2 cfu/ml
[2]; 5% MSM, 30 μg/ml oxacillin, 48 hours
  Average Log: 3.8 Log
[2]; 5% MSM, 30 μg/ml oxacillin, 72 hours
  Average Log: 5.5 Log
[2]; [5]
  Average Log: 2.54 Log
  survival: 3.5 × 10^2 cfu/ml and 3.3 × 10^2 cfu/ml and 3.6 × 10^2 cfu/ml
[2]; 5% MSM, 60 μg/ml oxacillin, 48 hours
  Average Log: 3.5 Log
[2]; 5%, 10% and 16% MSM, no antibiotic, 24 hours
  growth: turbid growth
[2]; [6]
  Average Log: 3.92 Log
  survival: 8.6 × 10^3 cfu/ml and 8.5 × 10^3 cfu/ml and 8.0 × 10^3 cfu/ml
[2]; 6% MSM, 12 μg/ml oxacillin, 48 hours
  Average Log: 3.2 Log
[2]; 6% MSM, 12 μg/ml oxacillin, 72 hours
  Average Log: 5.5 Log
[2]; [7]
  Average Log: 2.46 Log
  survival: 2.9 × 10^2 cfu/ml
[2]; 6% MSM, 30 μg/ml oxacillin, 48 hours
  Average Log: 3.7 Log
[2]; 6% MSM, 30 μg/ml oxacillin, 72 hours
  Average Log: 5.5 Log
[2]; [8]
  Average Log: 2.38 Log
  survival: 2.4 × 10^2 cfu/ml
[2]; 6% MSM, 60 μg/ml oxacillin, 48 hours
  Average Log: 1.8 Log
[2]; [9]
  Average Log: 3.91 Log
  survival: 8.2 × 10^3 cfu/ml and 8.5 × 10^3 cfu/ml and 8.3 × 10^3 cfu/ml
[2]; 7% MSM, 12 μg/ml oxacillin, 48 hours
  Average Log: 3.9 Log
[2]; 7% MSM, 12 μg/ml oxacillin, 72 hours
  Average Log: 5.5 Log
[2]; [10]
  Average Log: 2.98 Log
  survival: 9.7 × 10^2 cfu/ml and 9.6 × 10^2 cfu/ml and 9.2 × 10^2 cfu/ml
[2]; 7% MSM, 30 μg/ml oxacillin, 48 hours
  Average Log: 2.3 Log
[2]; 7% MSM, 30 μg/ml oxacillin, 72 hours
  Average Log: 4.5 Log
[2]; [11]
  Average Log: 2.34 Log
  survival: 2.1 × 10^2 cfu/ml and 2.3 × 10^2 cfu/ml
[2]; 7% MSM, 60 μg/ml oxacillin, 48 hours
  Average Log: 4.0 Log
[2]; [12]
  Average Log: 3.82 Log
  survival: 6.6 × 10^3 cfu/ml and 6.9 × 10^3 cfu/ml
[2]; 8% MSM, 12 μg/ml oxacillin, 48 hours
  Average Log: 3.7 Log
[2]; 8% MSM, 12 μg/ml oxacillin, 72 hours
  Average Log: 5.5 Log
[2]; [13]
  Average Log: 3.07 Log
  survival: 1.18 × 10^3 cfu/ml and 1.16 × 10^3 cfu/ml
[2]; 8% MSM, 30 μg/ml oxacillin, 48 hours
  Average Log: 3.1 Log
[2]; 8% MSM, 30 μg/ml oxacillin, 72 hours
  Average Log: 5.5 Log
[2]; [14]
  Average Log: 2.67 Log
  survival: 4.6 × 10^2 cfu/ml and 5.0 × 10^2 cfu/ml
[2]; 8% MSM, 60 μg/ml oxacillin, 48 hours
  Average Log: 2.8 Log
[2]; [15]
  Average Log: 3.72 Log
  survival: 5.6 × 10^3 cfu/ml and 5.2 × 10^3 cfu/ml and 5.0 × 10^3 cfu/ml
[2]; 9% MSM, 12 μg/ml oxacillin, 48 hours
  Average Log: 3.4 Log
[2]; 9% MSM, 12 μg/ml oxacillin, 72 hours
  Average Log: 4.5 Log
[2]; [16]
  Average Log: 3.01 Log
  survival: 1.06 × 10^3 cfu/ml and 1.05 × 10^3 cfu/ml and 1.02 × 10^3 cfu/ml
[2]; 9% MSM, 30 μg/ml oxacillin, 48 hours
  Average Log: 2.4 Log
[2]; 9% MSM, 30 μg/ml oxacillin, 72 hours
  Average Log: 2.9 Log
[2]; [17]
  Average Log: 2.50 Log
  survival: 3.2 × 10^2 cfu/ml
[2]; 9% MSM, 60 μg/ml oxacillin, 48 hours
  Average Log: 2.2 Log
[2]; [18]
  Average Log: 3.76 Log
  survival: 5.8 × 10^3 cfu/ml and 5.6 × 10^3 cfu/ml and 6.0 × 10^3 cfu/ml
[2]; [19]
  Average Log: 2.7 Log
  survival: 5.6 × 10^2 cfu/ml
[2]; 10% MSM, 12 μg/ml oxacillin, 72 hours
  Average Log: 4.0 Log
[2]; [20]
  Average Log: 3.32 Log
  survival: 2.2 × 10^3 cfu/ml and 2.0 × 10^3 cfu/ml
[2]; 10% MSM, 30 μg/ml oxacillin, 48 hours
  Average Log: 2.6 Log
[2]; 10% MSM, 30 μg/ml oxacillin, 72 hours
  Average Log: 3.9 Log
[2]; [21]
  Average Log: 2.63 Log
  survival: 4.2 × 10^2 cfu/ml and 4.4 × 10^2 cfu/ml
[2]; 10% MSM, 60 μg/ml oxacillin, 48 hours
  Average Log: 2.2 Log
[2]; [22]
  Average Log: 3.91 Log
  survival: 8.2 × 10^3 cfu/ml and 8.5 × 10^3 cfu/ml and 8.0 × 10^3 cfu/ml
[2]; [23]
  Average Log: 2.8 Log
  survival: 6.4 × 10^2 cfu/ml and 5.8 × 10^2 cfu/ml and 6.5 × 10^2 cfu/ml

— patent US8217085B2 (priority 2009, dated 2012)
